In patent US6413989B1, “Piperidinylmethyloxazolidinone derivative” (Merck Patent Gesellschaft mit beschrankter Haftung, priority 1997, dated 2002):
pIC50: −log10 of the molar value. Like-named read-outs stand apart in the source and are kept apart here.

How the values were obtained:
[1] = target: T1, polyamine binding site (ifenprodil binding site at the NMDA receptor/ion channel complex) (Rattus norvegicus, UniProt P35439+Q00960); test: Ifenprodil binding ([3H]-ifenprodil displacement, rat forebrain membranes)
T1 construct: Homogenates of rat forebrain were centrifuged repeatedly; from tissue; host or cells: rat forebrain membranes
T1 sequence (Q00960 27-1482, other chains not shown): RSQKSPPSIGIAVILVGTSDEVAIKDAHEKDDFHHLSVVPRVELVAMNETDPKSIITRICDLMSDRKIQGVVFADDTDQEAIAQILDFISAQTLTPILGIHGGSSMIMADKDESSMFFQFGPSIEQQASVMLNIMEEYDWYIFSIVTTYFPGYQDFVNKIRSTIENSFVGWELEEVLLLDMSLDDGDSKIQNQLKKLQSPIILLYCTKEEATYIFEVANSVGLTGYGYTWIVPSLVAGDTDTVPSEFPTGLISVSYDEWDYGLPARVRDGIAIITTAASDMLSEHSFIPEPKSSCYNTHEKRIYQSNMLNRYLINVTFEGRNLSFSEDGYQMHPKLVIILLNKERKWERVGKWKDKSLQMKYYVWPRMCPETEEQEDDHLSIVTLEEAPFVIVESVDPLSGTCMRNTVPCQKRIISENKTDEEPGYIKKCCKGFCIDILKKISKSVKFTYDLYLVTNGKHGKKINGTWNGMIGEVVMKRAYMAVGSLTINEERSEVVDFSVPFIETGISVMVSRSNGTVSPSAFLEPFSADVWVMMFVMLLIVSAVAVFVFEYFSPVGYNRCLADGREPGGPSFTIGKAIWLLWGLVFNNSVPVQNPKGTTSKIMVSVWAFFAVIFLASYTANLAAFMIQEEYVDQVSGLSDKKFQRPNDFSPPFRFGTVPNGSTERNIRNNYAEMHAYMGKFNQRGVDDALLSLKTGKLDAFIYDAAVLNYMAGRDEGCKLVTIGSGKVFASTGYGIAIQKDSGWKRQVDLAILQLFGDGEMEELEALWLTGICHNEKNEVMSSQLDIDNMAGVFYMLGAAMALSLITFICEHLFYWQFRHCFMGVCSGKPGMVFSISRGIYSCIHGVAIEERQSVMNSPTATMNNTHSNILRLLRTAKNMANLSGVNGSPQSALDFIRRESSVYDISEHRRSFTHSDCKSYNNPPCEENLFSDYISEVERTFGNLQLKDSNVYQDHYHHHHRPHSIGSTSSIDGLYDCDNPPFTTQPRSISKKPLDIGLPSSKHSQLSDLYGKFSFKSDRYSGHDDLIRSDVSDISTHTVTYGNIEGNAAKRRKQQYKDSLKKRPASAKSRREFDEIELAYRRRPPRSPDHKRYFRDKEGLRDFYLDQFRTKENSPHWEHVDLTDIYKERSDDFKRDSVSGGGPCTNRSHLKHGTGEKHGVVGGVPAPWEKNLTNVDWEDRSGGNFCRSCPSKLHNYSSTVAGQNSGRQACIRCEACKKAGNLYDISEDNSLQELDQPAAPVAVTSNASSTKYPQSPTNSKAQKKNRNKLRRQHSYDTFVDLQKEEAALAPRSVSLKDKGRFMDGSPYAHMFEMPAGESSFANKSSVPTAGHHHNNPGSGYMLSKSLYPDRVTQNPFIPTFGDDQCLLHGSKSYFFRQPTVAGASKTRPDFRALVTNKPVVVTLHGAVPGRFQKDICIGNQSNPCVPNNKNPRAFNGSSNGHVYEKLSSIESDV
Description: (§1) Additionally, in the binding experiment this active compound displaces tritiated ifenprodil in the forebrain of rats from its binding site (for method see Schoemaker et al., European J. Pharmacol. 176 (1990), 249-250), which represents a receptor at the N-methyl-D-aspartate (NMDA) receptor/ion channel complex as a subtype of the glutamate receptors.
1. Ifenprodil binding (Schoemaker et al., 1990)
Homogenates of rat forebrain were centrifuged repeatedly. The last membrane […] (10 mg/ml) was used to determine the specific binding in the presence of 1.15 nM [^3H]-ifenprodil in 5 ml of buffer solution at pH 7.4. The unspecific binding was determined in the presence of 100 μM of ifenprodil.

rats [2] = test: Inhibition of apomorphine-induced stereotypical behaviour in rats; assay type: in vivo, rat; conditions: for ED50: Rattus norvegicus, sc, read-out: Inhibition of apomorphine-induced stereotypical behaviour in rats 50% inhibition/ED50 s.c. at:
Source text: as §1
2. Inhibition of apomorphine-induced stereotypical behaviour in rats (Puech et al., 1978):
Stereotypical behaviour (unmotivated sniffling, licking, chewing, rhythmic movements with the forepaws) was induced by administration of 0.5 mg/kg s.c. of apomorphine. The intensity of the ensuing stereotypical behaviour was assessed every 5 minutes for each rat for a period of 30 minutes using a rating system (0-3). The total score was used as a measure of the occurence of the stereotypical behaviour.

rats [3] = test: Catalepsy induction in rats; assay type: in vivo, rat
Description: as §1
3. Catalepsy induction in rats (Stanley and Glick, 1976):
The occurrence of catalepsy in rats was measured by placing a hindpaw on a 3 cm high block and scoring every 5 minutes for a period of 30 minutes the time for which the rat stayed in this unnatural position using a rating system (score 0-3). The total score was used as a measure of the intensity of the catalepsy.

mice [4] = test: Apomorphine-induced climbing behaviour in mice; assay type: in vivo, mouse
rats [5] = test: Conditioned avoiding reaction in rats; assay type: in vivo, rat
rats [6] = test: Ultrasound vocalization after electric stimulation in rats; assay type: in vivo, rat; conditions: proof of the anxiolytic action
mice [7] = test: Spontaneous behaviour of mice (Irwin); assay type: in vivo, mouse
rats [8] = test: Spontaneous behaviour of rats (Irwin); assay type: in vivo, rat
[9] = rat forebrain homogenate, 1.15 nM [3H]-ifenprodil, pH 7.4, methanesulfonate salts, read-out: Ifenprodil binding in vitro 50% displacement/IC50 at:
[10] = apomorphine 0.5 mg/kg s.c., methanesulfonate salts

For Cc1ccc(N2C[C@H](CN3CCC(Cc4ccc(F)cc4)CC3)OC2=O)cc1 [R = CH3, reference compound], the pIC50 [1, 9] was < 6.00 and the ED50 (rats [2]; [10]) was > 10 mg/kg.

O=C1O[C@@H](CN2CCC(Cc3ccc(F)cc3)CC2)CN1c1ccc(F)cc1 [R = F, reference compound] was tested, and the pIC50 [1, 9] was < 6.00 and the ED50 (rats [2]; [10]) was > 10 mg/kg.

For COc1ccc(N2C[C@H](CN3CCC(Cc4ccc(F)cc4)CC3)OC2=O)cc1 [R = OCH3, (5S)-(−)-5-[4-(4-fluorobenzyl)-1-piperidinylmethyl]-3-(4-methoxyphenyl)-oxazolidin-2-one, reference compound], the pIC50 [1, 9] was < 6.00 and the ED50 (rats [2]; [10]) was > 10 mg/kg.

With O=C1O[C@@H](CN2CCC(Cc3ccc(F)cc3)CC2)CN1c1ccc(O)cc1 [R = OH, (5S)-(−)-5-[4-(4-fluorobenzyl)-1-piperidinylmethyl]-3-(4-hydroxyphenyl)oxazolidin-2-one] the pIC50 ([1]; in vitro, read-out: IC50 for the polyamine binding site) was 8.00, the pIC50 [1, 9] was 8.00 and the “Inhibition of apomorphine-induced stereotypical behaviour in rats 50% inhibition/ED50 s.c. at:” value (rats [2]; s.c., apomorphine 0.5 mg/kg s.c., methanesulfonate salts) was 2.8 mg/kg. For the same molecule, the “Catalepsy induction Rat” value (rats [3]; 30 mg/kg s.c., rat, methanesulfonate salt) was 0% and the “Catalepsy ED50” value (rats [3]; in vivo animal models) was > 30 mg/kg.

With O=C1OC(CN2CCC(Cc3ccc(F)cc3)CC2)CN1c1ccc(O)cc1 (stereo not shown) [formula I, 5-[4-(4-fluorobenzyl)piperidin-1-ylmethyl]-3-(4-hydroxy-phenyl) oxazolidin-2-one] the “displacement of tritiated ifenprodil from its binding site” value ([1]; forebrain of rats) was “displaces”, the “apomorphine-induced stereotypical behaviour in rats (in words)” value (rats [2]) was “inhibits” and the “occurrence of catalepsy (in words)” value (rats [3]; rat, in vivo) was “without the occurrence of catalepsy”. The “apomorphine-induced climbing behaviour in mice” value (mice [4]) was “inhibits”, the “conditioned avoiding reaction in rats” value (rats [5]) was “inhibits” and the “ultrasound vocalization after electric stimulation in rats” value (rats [6]) was “inhibits”. For the same molecule, the “effect on the spontaneous behaviour of mice” value (mice [7]) was “depressive effect” and the “effect on the spontaneous behaviour of rats” value (rats [8]) was “depressive effect”.
